Results published in BindingDB's records for doi:10.1016/j.bmcl.2018.08.039 (National Institutes of Health, 2018).

Biological target: Bromodomain-containing protein 4 (Homo sapiens, UniProt O60885)
Experiment: Displacement of biotinylated acetylated peptide from recombinant human partial length BRD4 long isoform bromodomain 1/2 (N44 to E460 residues) expressed in Escherichia coli BL21 measured after 1 hr by Bromoscan method

Row | Kd [nM] | Compound
1 | 250 | Cc1noc(C)c1-c1ccc2nc(-c3ccc(CO)nc3)nc(NCc3cccc(Cl)c3)c2c1
2 | 140 | Cc1noc(C)c1-c1ccc2nc(-n3cc(CCO)cn3)nc(NCc3cccc(Cl)c3)c2c1
3 | 2900 | CNc1nc(NCc2cccc(Cl)c2)c2cc(-c3c(C)noc3C)ccc2n1
4 | 980 | Cc1noc(C)c1-c1ccc2nc(Cl)nc(NCc3cccc(Cl)c3)c2c1
